Measurements: patent US9247759B2, “Identification of human T2R receptors that respond to bitter compounds that elicit the bitter taste in compositions, and the use thereof in assays to identify compounds that inhibit (block) bitter taste in compositions and use thereof” (SENOMYX, INC., priority 2007, dated 2016)

What was measured:
hT2R44 = assay: hT2R panel inhibition, transient HEK293 G16g44, agonist Denatonium 0.5 μM; type: cell-based, human; conditions: compound at 25 μM; receptor activated to EC80 with the corresponding agonist
Method in brief: (§1)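 Here, inhibition reflects how much the test compound lowers activation of a transiently expressed human bitter receptor stimulated at EC80. Twenty-two such receptors were tested separately.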

hT2R14 [1] = target: T1, hT2R14 (Homo sapiens (Human), UniProt Q9NYV8); assay: hT2R panel inhibition, transient HEK293 G16g44, agonist Aristolochic Acid 2 μM; type: cell-based; conditions: HEK293, compound at 25 μM; receptor activated to EC80 with the corresponding agonist; read-out: screening result against bitter receptor 14
Method in brief: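 Each hT2R was transiently transfected into HEK293 cells stably expressing G16g44 and assayed functionally for inhibition of agonist response. Agonists were applied at EC80: andrographolide at 0.5 mM for hT2R8 and aristolochic acid at 2 μM for hT2R14.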

hT2R55 = assay: hT2R panel inhibition, transient HEK293 G16g44, agonist Cinchonine 150 μM; type: cell-based, human; conditions: compound at 25 μM; receptor activated to EC80 with the corresponding agonist
Method in brief: as §1

hT2R16 = hT2R16 (Homo sapiens (Human), UniProt Q9NYV7); assay: hT2R panel inhibition, transient HEK293 G16g44, agonist Salicin 1 mM; type: cell-based; conditions: HEK293, compound at 25 μM; receptor activated to EC80 with the corresponding agonist; read-out: screening result against bitter receptor 16
Method in brief: as §1

hT2R63 = assay: hT2R panel inhibition, transient HEK293 G16g44, agonist Caffeine 1 mM or Andrographolide 100 μM; type: cell-based, human; conditions: compound at 25 μM; receptor activated to EC80 with the corresponding agonist
Method in brief: as §1

hT2R71 = hT2R71 (Homo sapiens (Human), UniProt P59536); assay: hT2R panel inhibition, transient HEK293 G16g44, agonist Picric Acid 10 μM; type: cell-based; conditions: HEK293, compound at 25 μM; receptor activated to EC80 with the corresponding agonist; read-out: screening result against bitter receptor 71
Method in brief: as §1

hT2R14 [2] = target: T1, hT2R14; assay: hT2R14 antagonist high-throughput FLIPR assay, stable cell line with G16g44, agonist aristolochic acid; type: cell-based; conditions: read-out: IC50 on hT2R14 bitter receptor
Method in brief: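 HEK293 cells stably expressing hT2R14 with chimeric G16g44 were stimulated with aristolochic acid (3 μM), giving 70-80% of maximal receptor activity. Test compounds were added together with the agonist, and antagonism was read as fluorescent calcium signal on FLIPR.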

hT2R64 = hT2R64 (Homo sapiens (Human), UniProt P59538); assay: hT2R panel inhibition, transient HEK293 G16g44, agonist Aristolochic Acid 1 μM; type: cell-based; conditions: HEK293, compound at 25 μM; receptor activated to EC80 with the corresponding agonist; read-out: screening result against bitter receptor 64
Method in brief: as §1

hT2R61 = hT2R61 (Homo sapiens (Human), UniProt P59537); assay: hT2R panel inhibition, transient HEK293 G16g44, agonist Aristolochic Acid 25 nM; type: cell-based; conditions: HEK293, compound at 25 μM; receptor activated to EC80 with the corresponding agonist; read-out: screening result against bitter receptor 61
Method in brief: as §1

hT2R3 = hT2R3 (Homo sapiens (Human), UniProt Q9NYW6); assay: hT2R panel inhibition, transient HEK293 G16g44, agonist Chloroquine pH6.5 50 μM; type: cell-based; conditions: HEK293, compound at 25 μM; receptor activated to EC80 with the corresponding agonist; read-out: screening result against bitter receptor 3
Method in brief: as §1

hT2R4 = hT2R4 (Homo sapiens (Human), UniProt Q9NYW5); assay: hT2R panel inhibition, transient HEK293 G16g44, agonist Chloroquine pH6.5 5 mM; type: cell-based; conditions: HEK293, compound at 25 μM; receptor activated to EC80 with the corresponding agonist; class symbols; read-out: screening result against bitter receptor 4
Procedure: (§2) Specifically, in order to evaluate the inhibitory selectivity of the Compound C compound, this compound was tested against 22 human T2Rs which were deorphaned by Senomyx. These receptors and the bitter ligands that activate these human T2Rs are reported in earlier patent applications which are incorporated by reference herein. These 22 human T2Rs are hT2R1, 3, 4, 5, 7, 8, 9, 10, 13, 14, 16, 44, 51, 54, 55, 61, 63, 64, 65, 67, 71 and 75. The amino acid and nucleic acid sequences of all of these T2Rs may be found in these earlier patent applications. These human T2Rs were each individually transiently transfected into HEK293 cells that stably express the promiscuous G protein G16g44 and functional assays were effected using these receptors as disclosed in these same patent applications. […] The ligands were used at EC80 concentration levels. The list of bitter ligands utilized and the tested ligand concentrations are contained in Table 5 of this example.
(§3) Relating to the foregoing, FIG. 5 contains experimental results wherein Compound C was tested with different agonist compounds. The inhibition activity is represented by the reduction of receptor activity in the presence of Compound C. […] These 13 hT2Rs are hT2R3, 7, 10, 14, 16, 44, 51, 55, 61, 63, 64, 65, and 71.

hT2R75 = hT2R75 (Homo sapiens (Human), UniProt P59540); assay: hT2R panel inhibition, transient HEK293 G16g44, agonist Strychnine 1 μM; type: cell-based; conditions: HEK293, read-out: screening result against bitter receptor 75, compound at 25 μM; receptor activated to EC80 with the corresponding agonist
Procedure: as §2, §3

hT2R5 = hT2R5 (Homo sapiens (Human), UniProt Q9NYW4); assay: hT2R panel inhibition, transient HEK293 G16g44, agonist Picoline 10 mM; type: cell-based; conditions: HEK293, compound at 25 μM; receptor activated to EC80 with the corresponding agonist; read-out: screening result against bitter receptor 5
Method in brief: as §1

hT2R65 = assay: hT2R panel inhibition, transient HEK293 G16g44, agonist Oleuropein 1 mM; type: cell-based, human; conditions: compound at 25 μM; receptor activated to EC80 with the corresponding agonist
Method in brief: as §1

hT2R54 = assay: hT2R panel inhibition, transient HEK293 G16g44, agonist Ranitidine 5 mM; type: cell-based, human; conditions: compound at 25 μM; receptor activated to EC80 with the corresponding agonist
Method in brief: as §1

hT2R67 = assay: hT2R panel inhibition, transient HEK293 G16g44, agonist Andrographolide 5 μM; type: cell-based, human; conditions: compound at 25 μM; receptor activated to EC80 with the corresponding agonist
Method in brief: as §1

hT2R10 = hT2R10 (Homo sapiens (Human), UniProt Q9NYW0); assay: hT2R panel inhibition, transient HEK293 G16g44, agonist Strychnine 50 μM; type: cell-based; conditions: HEK293, read-out: screening result against bitter receptor 10, compound at 25 μM; receptor activated to EC80 with the corresponding agonist
hT2R7 = hT2R7 (Homo sapiens (Human), UniProt Q9NYW3); assay: hT2R panel inhibition, transient HEK293 G16g44, agonist Chloroquine pH6.5 10 mM; type: cell-based; conditions: HEK293, compound at 25 μM; receptor activated to EC80 with the corresponding agonist; read-out: screening result against bitter receptor 7
Method in brief: as §1

hT2R51 = hT2R51 (Homo sapiens (Human), UniProt P59533); assay: hT2R panel inhibition, transient HEK293 G16g44, agonist Prop 2.5 μM; type: cell-based; conditions: HEK293, compound at 25 μM; receptor activated to EC80 with the corresponding agonist; read-out: screening result against bitter receptor 51
Procedure: as §2, §3

Chain of hT2R61 (P59537 whole entry): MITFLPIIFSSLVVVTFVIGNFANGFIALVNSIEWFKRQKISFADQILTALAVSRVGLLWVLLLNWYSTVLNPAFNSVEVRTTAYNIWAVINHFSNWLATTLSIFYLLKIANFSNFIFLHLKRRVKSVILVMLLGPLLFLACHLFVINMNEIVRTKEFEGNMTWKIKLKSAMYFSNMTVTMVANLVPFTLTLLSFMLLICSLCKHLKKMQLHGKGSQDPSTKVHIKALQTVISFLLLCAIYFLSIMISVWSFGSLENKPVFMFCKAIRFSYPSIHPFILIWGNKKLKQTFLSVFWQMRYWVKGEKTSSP
Chain of hT2R64 (P59538 whole entry): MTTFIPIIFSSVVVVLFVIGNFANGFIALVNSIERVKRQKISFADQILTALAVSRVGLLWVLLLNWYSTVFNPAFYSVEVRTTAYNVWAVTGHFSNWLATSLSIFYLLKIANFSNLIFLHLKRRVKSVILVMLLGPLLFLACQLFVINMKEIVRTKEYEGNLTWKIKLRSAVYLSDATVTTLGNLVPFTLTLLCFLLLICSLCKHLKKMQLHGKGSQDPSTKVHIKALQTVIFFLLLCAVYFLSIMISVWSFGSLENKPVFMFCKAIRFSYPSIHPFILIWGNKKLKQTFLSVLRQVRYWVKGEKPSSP
Chain of hT2R16 (Q9NYV7 whole entry): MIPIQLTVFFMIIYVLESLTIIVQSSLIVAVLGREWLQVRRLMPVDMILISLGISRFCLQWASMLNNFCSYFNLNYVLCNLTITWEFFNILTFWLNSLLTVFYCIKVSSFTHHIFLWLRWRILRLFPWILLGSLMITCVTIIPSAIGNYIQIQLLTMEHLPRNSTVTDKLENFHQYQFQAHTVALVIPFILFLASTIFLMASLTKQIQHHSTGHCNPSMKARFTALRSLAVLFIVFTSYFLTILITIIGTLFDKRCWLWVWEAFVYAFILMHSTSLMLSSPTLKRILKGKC
Chain of hT2R3 (Q9NYW6 whole entry): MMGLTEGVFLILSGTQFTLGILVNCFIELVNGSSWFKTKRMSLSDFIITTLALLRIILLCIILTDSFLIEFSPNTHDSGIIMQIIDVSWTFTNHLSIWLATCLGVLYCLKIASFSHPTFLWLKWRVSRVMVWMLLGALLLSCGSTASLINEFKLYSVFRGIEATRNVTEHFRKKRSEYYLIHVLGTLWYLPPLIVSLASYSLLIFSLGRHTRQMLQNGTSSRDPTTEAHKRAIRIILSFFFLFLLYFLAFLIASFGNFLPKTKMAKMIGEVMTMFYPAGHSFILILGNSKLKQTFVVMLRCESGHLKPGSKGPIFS
Chain of hT2R10 (Q9NYW0 whole entry): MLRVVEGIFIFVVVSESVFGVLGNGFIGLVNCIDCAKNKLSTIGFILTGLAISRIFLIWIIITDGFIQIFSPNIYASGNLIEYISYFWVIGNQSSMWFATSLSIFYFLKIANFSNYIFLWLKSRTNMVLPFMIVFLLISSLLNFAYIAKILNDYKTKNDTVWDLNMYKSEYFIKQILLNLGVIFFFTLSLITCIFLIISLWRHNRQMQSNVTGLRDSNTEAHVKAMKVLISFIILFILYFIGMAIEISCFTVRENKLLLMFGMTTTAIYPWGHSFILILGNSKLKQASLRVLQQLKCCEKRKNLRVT
T1 sequence (Q9NYV8 whole entry): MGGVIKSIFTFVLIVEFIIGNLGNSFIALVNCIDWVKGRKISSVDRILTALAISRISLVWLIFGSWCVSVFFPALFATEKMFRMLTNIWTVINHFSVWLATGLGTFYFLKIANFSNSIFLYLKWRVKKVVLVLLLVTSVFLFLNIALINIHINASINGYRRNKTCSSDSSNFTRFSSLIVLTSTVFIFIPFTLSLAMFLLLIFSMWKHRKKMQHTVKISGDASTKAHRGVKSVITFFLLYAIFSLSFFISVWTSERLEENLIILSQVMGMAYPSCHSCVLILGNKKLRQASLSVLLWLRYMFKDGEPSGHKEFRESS
Chain of hT2R51 (P59533 whole entry): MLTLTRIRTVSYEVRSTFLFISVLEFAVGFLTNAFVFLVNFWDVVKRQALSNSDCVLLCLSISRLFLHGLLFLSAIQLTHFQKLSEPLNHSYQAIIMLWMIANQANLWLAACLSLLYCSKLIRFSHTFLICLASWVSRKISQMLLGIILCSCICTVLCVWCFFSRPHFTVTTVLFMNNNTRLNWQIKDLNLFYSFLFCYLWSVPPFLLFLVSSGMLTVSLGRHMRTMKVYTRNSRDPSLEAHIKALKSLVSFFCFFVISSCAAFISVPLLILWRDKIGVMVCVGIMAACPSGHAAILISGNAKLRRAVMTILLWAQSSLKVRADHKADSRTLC
Chain of hT2R4 (Q9NYW5 whole entry): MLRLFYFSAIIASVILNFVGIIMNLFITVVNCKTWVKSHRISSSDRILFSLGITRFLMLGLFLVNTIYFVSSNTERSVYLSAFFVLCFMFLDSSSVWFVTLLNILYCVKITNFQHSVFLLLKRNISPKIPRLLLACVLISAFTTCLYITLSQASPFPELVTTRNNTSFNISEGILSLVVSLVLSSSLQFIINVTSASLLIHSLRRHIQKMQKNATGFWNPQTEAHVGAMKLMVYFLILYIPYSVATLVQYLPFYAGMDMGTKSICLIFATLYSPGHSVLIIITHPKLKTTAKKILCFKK
Chain of hT2R7 (Q9NYW3 whole entry): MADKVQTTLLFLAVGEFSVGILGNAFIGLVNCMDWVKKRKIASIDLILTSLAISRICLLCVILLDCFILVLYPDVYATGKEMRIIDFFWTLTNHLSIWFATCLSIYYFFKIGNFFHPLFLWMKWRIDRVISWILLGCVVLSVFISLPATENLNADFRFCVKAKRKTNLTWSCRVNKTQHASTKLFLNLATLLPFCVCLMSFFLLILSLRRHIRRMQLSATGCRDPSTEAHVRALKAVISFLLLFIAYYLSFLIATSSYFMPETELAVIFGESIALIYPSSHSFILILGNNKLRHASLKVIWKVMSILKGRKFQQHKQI
Chain of hT2R75 (P59540 whole entry): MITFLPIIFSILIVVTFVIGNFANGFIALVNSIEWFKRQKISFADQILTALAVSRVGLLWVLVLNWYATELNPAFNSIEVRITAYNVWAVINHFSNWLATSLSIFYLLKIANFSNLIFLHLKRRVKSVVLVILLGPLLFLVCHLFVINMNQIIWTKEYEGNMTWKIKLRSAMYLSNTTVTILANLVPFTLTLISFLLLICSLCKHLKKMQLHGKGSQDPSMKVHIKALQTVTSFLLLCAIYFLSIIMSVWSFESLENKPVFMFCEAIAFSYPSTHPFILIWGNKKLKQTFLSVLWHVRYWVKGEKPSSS
Chain of hT2R71 (P59536 whole entry): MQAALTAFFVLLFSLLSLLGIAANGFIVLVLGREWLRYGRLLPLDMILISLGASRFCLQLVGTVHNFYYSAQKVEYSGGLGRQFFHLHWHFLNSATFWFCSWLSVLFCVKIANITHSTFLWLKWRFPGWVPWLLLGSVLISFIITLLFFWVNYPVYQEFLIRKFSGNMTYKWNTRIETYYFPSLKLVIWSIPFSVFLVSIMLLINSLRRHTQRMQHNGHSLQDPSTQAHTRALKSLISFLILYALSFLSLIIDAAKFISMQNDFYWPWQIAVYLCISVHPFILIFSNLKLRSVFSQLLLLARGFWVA
Chain of hT2R5 (Q9NYW4 whole entry): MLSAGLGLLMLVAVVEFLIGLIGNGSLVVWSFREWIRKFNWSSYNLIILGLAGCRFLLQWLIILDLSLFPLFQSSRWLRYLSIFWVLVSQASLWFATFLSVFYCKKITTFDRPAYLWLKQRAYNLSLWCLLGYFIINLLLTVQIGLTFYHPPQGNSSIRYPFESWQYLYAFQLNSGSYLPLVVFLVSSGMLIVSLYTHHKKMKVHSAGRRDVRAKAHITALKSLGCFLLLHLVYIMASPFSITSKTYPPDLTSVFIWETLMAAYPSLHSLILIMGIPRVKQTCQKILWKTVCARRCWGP

Row | Compound | screening result against bitter receptor 44 (hT2R44) | inhibition at 25 µM (hT2R14 [1]) | screening result against bitter receptor 55 (hT2R55) | inhibition at 25 µM (hT2R16) | screening result against bitter receptor 63 (hT2R63) | inhibition at 25 µM (hT2R71) | IC50 (hT2R14 [2]) | inhibition at 25 µM (hT2R64) | inhibition at 25 µM (hT2R61) | inhibition at 25 µM (hT2R3) | inhibition at 25 µM (hT2R4) | inhibition at 25 µM (hT2R75) | inhibition at 25 µM (hT2R5) | screening result against bitter receptor 65 (hT2R65) | screening result against bitter receptor 54 (hT2R54) | screening result against bitter receptor 67 (hT2R67) | inhibition at 25 µM (hT2R10) | inhibition at 25 µM (hT2R7) | inhibition at 25 µM (hT2R51)
1 | COc1cccc(CN(Cc2ccc(C(=O)O)cc2)S(=O)(=O)c2ccc(O)cc2)c1 [Example 5-43, 4-((4-hydroxy-N-(3-methoxybenzyl)phenylsulfonamido)methyl)-benzoic acid] | + (20% to 40% inhibition = +) | > 80% | + (20% to 40% inhibition = +) | 20 to 40% | ++++ (80% or greater inhibition = ++++) | 40 to 60% | 188 nM | 60 to 80% | > 80% | 20 to 40% | 20 to 40% |  |  |  |  |  |  |  | 
2 | O=C(O)c1ccc(S(=O)(=O)N(Cc2ccccc2)Cc2ccccc2Cl)cc1 [Example 5-83, 4-(N-benzyl-N-(2-chlorobenzyl)sulfamoyl)benzoic acid] | + (20% to 40% inhibition = +) | > 80% | +++ (60% to 80% inhibition = +++) | 40 to 60% | +++ (60% to 80% inhibition = +++) | 20 to 40% |  | 20 to 40% | > 80% | 40 to 60% |  | 40 to 60% | 20 to 40% | +++ (60% to 80% inhibition = +++) | ++ (40% to 60% inhibition = ++) | ++ (40% to 60% inhibition = ++) | 40 to 60% | 20 to 40% | 20 to 40%
3 | COc1ccc(CN2C(=O)N(c3ccc(C(=O)O)cc3)C(=O)C2Cc2ccccc2)cc1 (stereo not drawn) [Example 5-98, 4-(4-benzyl-3-(4-methoxybenzyl)-2,5-dioxoimidazolidin-1-yl)benzoic acid] | +++ (60% to 80% inhibition = +++) |  | ++++ (80% or greater inhibition = ++++) |  |  |  |  | 60 to 80% | > 80% | 20 to 40% | 40 to 60% |  |  |  |  |  |  |  | 
4 | Cc1cccc(CN(Cc2ccccc2)S(=O)(=O)c2ccc(C(=O)O)cc2)c1 [Example 5-73, 4-(N-benzyl-N-(3-methylbenzyl)sulfamoyl)benzoic acid] |  | > 80% | ++ (40% to 60% inhibition = ++) | 20 to 40% | ++++ (80% or greater inhibition = ++++) | 40 to 60% |  | 20 to 40% | 60 to 80% | 40 to 60% |  | 20 to 40% | 20 to 40% | ++ (40% to 60% inhibition = ++) | +++ (60% to 80% inhibition = +++) | + (20% to 40% inhibition = +) | 40 to 60% | 20 to 40% | > 80%
5 | COc1ccccc1CN(Cc1ccccc1)S(=O)(=O)c1ccc(C(=O)O)cc1 [Example 5-71, 4-(N-benzyl-N-(2-methoxybenzyl)sulfamoyl)benzoic acid] |  | > 80% | ++ (40% to 60% inhibition = ++) | 20 to 40% | ++++ (80% or greater inhibition = ++++) | 40 to 60% |  | 20 to 40% | > 80% | 20 to 40% |  | 20 to 40% | 20 to 40% | ++ (40% to 60% inhibition = ++) | +++ (60% to 80% inhibition = +++) | + (20% to 40% inhibition = +) | 20 to 40% | 20 to 40% | 40 to 60%
6 | COc1ccc(CN(Cc2ccccc2Cl)S(=O)(=O)c2ccc(C(=O)O)cc2)cc1 [Example 5-68, 4-(N-(2-chlorobenzyl)-N-(4-methoxybenzyl)sulfamoyl)benzoic acid] | ++ (40% to 60% inhibition = ++) | > 80% | ++++ (80% or greater inhibition = ++++) | 20 to 40% | ++++ (80% or greater inhibition = ++++) | 60 to 80% |  | 60 to 80% | 60 to 80% | 20 to 40% |  | 20 to 40% | 40 to 60% | + (20% to 40% inhibition = +) | + (20% to 40% inhibition = +) | + (20% to 40% inhibition = +) | 20 to 40% | 20 to 40% | 20 to 40%
7 | COc1ccc(CN(Cc2ccccc2OC)S(=O)(=O)c2ccc(C(=O)O)cc2)cc1 [Example 5-58, 4-(N-(2-methoxybenzyl)-N-(4-methoxybenzyl)sulfamoyl)benzoic acid] | +++ (60% to 80% inhibition = +++) | > 80% | +++ (60% to 80% inhibition = +++) | 20 to 40% | ++++ (80% or greater inhibition = ++++) | > 80% |  | 60 to 80% | > 80% | 60 to 80% |  | 20 to 40% | 20 to 40% | ++++ (80% or greater inhibition = ++++) | +++ (60% to 80% inhibition = +++) | + (20% to 40% inhibition = +) | 60 to 80% | 60 to 80% | 20 to 40%
8 | CC(=O)Nc1ccc(S(=O)(=O)N(Cc2ccccc2)CC2CCC(C(=O)O)CC2)cc1 (stereo not drawn) [Example 5-21, 4-((4-acetamido-N-benzylphenylsulfonamido)methyl)-cyclohexanecarboxylic acid] | ++ (40% to 60% inhibition = ++) | > 80% | + (20% to 40% inhibition = +) | 20 to 40% | +++ (60% to 80% inhibition = +++) | 20 to 40% | 1620 nM | 20 to 40% | 60 to 80% | 20 to 40% | 20 to 40% |  |  |  |  |  |  |  | 
